Source: patent US11613542B2, “Sulfonylureas and sulfonylthioureas as NLRP3 inhibitors” (Inflazome Limited, priority 2017, dated 2023)
Where a name gives a salt, the structure may show the parent alone. Read-outs that look alike come from different tables or passages of the source.

How the values were obtained:
NLRP3 [1] = target: T1, NLRP3 (Homo sapiens, UniProt Q96P20); assay: THP-1 cells pyroptosis assay; type: cell-based; set-up: Seed THP-1 cells (25,000 cells/well) containing 1.0 μg/ml LPS; host or cells: THP-1 cells, LPS-primed, nigericin-stimulated; conditions: THP-1 cells, 1.0 μg/ml LPS, compound 3 hrs, nigericin 5 μM 1 hr, resazurin readout; read-out: THP IC50
Summary of the method: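 THP-1 cells (25,000/well) in serum-free RPMI with 1.0 μg/ml LPS, treated with compound (8-point half-log dilution, 10 μM top, 0.1% DMSO), then nigericin 5 μM final. Viability read by resazurin (100 μM final, 1-2 h, 37° C) fluorescence Ex 560/Em 590 nm; IC50 from 4-parameter variable-slope fit.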

NLRP3 [2] = target: T1, NLRP3; assay: Human whole blood IL1β release assay; type: cell-based; set-up: Human whole blood in Li-heparin tubes was obtained from healthy donors; from tissue; host or cells: human whole blood from healthy donors, LPS-primed, nigericin-stimulated; conditions: human whole blood, 1 μg/ml LPS, compound 3 hrs, nigericin 10 μM 1 hr, IL-1β AlphaLisa; read-out: HWB IC50
Summary of the method: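 Healthy-donor human whole blood (Li-heparin) primed with 1 μg/ml LPS, with compound (8-point half-log, 10 μM top) or 0.1% DMSO for 3 h at 37 °C, then 10 μM nigericin (final) for 1 h. Supernatant IL-1β read by AlphaLISA; IC50 from 4-parameter variable-slope fit.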

[3] = Pharmacokinetic parameters in male Sprague Dawley rats (intravenous and oral administration); type: in vivo; conditions: dose per compound (mg/kg); for AUC / Cl / T1/2 / Vdss / Cl/F / Cmax / Tmax / clearance / half-life / Vd / CL/F: rat plasma; for bioavailability: rat; for Vd: read-out: Vdss
Procedure: Pharmacokinetic parameters were determined in male Sprague Dawley rats (Charles River, UK, 250-350 g; or Vital River Laboratory Animal Technology Co Ltd, Beijing, China, 7-9 weeks old). Animals were individually housed during the study and maintained under a 12 h light/dark cycle. Animals had free access to food and water except that some orally dosed animals were food deprived overnight prior to the study.
For intravenous administration, compounds were formulated as a solution in water or DMSO:PBS [10:90] in 2 mL/kg dosing volume and administered via tail vein. For oral administration, compounds were formulated as a solution in water or DMSO:water [10:90] in 5 mL/kg dosing volume and administered orally.
Serial blood samples (about 120-300 μL) were taken from each animal at each of 8 time-points post dose (0.083, 0.25, 0.5, 1, 2, 4, 8 and 24 h) or at each of 12 time-points post dose (0.03, 0.1, 0.17, 0.25, 0.5, 1, 2, 4, 6, 8,12 and 24 h) or pre-dose and at each of 9 time-points post dose (0.25, 0.5, 1, 2, 4, 6, 8, 12 and 24 h). Samples were held on ice for no longer than 30 minutes before centrifugation (10,000 rpm (8,385 g) for 3 minutes; or 5,696 rpm (3,000 g) for 15 minutes) for plasma generation. Plasma was frozen on dry ice prior to bioanalysis. PK parameters were generated from LC-MS/MS data using Dotmatics or Phoenix WinNonlin 6.3 software.

[4] = male, Sprague Dawley, plasma, oral administration, read-out: Bioavailability
[5] = male, Sprague Dawley, intravenous administration
[6] = male, Sprague Dawley, intravenous administration, read-out: AUC
[7] = male, Sprague Dawley, oral administration
[8] = male, Sprague Dawley, oral administration, read-out: AUC
[9] = male, Sprague Dawley, oral administration, read-out: Cmax
[10] = male, Sprague Dawley, oral administration, read-out: Tmax

T1 sequence (Q96P20 whole entry): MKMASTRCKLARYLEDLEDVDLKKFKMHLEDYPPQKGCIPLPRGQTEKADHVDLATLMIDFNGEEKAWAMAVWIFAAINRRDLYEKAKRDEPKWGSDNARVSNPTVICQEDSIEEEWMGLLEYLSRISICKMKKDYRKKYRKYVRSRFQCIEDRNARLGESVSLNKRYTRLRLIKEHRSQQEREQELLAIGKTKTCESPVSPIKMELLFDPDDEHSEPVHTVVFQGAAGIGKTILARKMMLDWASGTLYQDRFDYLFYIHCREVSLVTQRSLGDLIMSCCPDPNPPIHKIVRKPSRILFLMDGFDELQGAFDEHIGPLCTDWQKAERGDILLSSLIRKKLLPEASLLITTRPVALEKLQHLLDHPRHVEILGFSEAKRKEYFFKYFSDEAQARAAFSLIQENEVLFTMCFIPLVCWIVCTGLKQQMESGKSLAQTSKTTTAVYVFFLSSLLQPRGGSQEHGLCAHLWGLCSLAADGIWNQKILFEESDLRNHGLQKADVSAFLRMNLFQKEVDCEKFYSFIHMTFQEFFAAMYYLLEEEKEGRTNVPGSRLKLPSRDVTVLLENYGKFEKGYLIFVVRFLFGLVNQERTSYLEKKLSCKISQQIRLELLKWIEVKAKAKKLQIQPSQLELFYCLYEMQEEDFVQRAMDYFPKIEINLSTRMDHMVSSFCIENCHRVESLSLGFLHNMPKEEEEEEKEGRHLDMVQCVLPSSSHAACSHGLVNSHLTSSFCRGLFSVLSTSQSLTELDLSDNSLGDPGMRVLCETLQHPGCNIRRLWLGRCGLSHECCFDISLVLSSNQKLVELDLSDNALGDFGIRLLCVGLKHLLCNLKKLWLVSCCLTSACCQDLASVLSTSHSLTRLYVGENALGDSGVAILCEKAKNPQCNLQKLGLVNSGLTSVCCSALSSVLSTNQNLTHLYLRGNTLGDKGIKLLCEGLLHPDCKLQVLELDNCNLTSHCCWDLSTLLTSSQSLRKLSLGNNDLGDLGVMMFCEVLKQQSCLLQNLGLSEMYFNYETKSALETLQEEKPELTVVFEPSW

Structure (SMILES)	IC50 (NLRP3 [1]) [nM]	IC50 (NLRP3 [2]) [nM]	AUC ([3]; intravenous administration) [ng·h/mL]	Cl ([3]; intravenous administration) [mL/min/kg]	T1/2 ([3]; intravenous administration) [h]	Vdss ([3]; intravenous administration) [L/kg]	clearance [3, 5] [mL/min/kg]	half-life [3, 5] [h]	AUC [3, 6] [ng·h/mL]	Vd [3, 5] [L/kg]	other results
CN(C)C(=O)c1cc(S(=O)(=O)NC(=O)Nc2c3c(cc4c2CCC4)CCC3)nn1C [Example 169, 3-(N-((1,2,3,5,6,7-Hexahydro-s-indacen-4-yl)carbamoyl)sulfamoyl)-N,N,1-trimethyl-1H-pyrazole-5-carboxamide, sodium salt]	< 160	< 400	3389.9	24.8	25.3	17.78					AUC ([3]; oral administration): 1052.0 ng·h/mL; Cl/F ([3]; oral administration): 49.5 mL/min/kg; Cmax ([3]; oral administration): 599.6 ng/mL; T1/2 ([3]; oral administration): 3.4 h; Tmax ([3]; oral administration): 0.25 h; bioavailability ([3]; oral administration): 62.0
CC(C)c1cc(F)cc(C(C)C)c1NC(=O)NS(=O)(=O)c1cc(C(=O)N(C)C)n(C)n1 [Example 160, 3-(N-((4-Fluoro-2,6-diisopropylphenyl)carbamoyl)sulfamoyl)-N,N,1-trimethyl-1H-pyrazole-5-carboxamide, sodium salt]	< 640	< 400	283.3	59.2	3.3	4.08					AUC ([3]; oral administration): 769.7 ng·h/mL; Cl/F ([3]; oral administration): 109.8 mL/min/kg; Cmax ([3]; oral administration): 494.7 ng/mL; T1/2 ([3]; oral administration): 9.7 h; Tmax ([3]; oral administration): 0.17 h; bioavailability ([3]; oral administration): 54.3
CN(C)CC(C)(C)n1ccc(S(=O)(=O)NC(=O)Nc2c3c(cc4c2CCC4)CCC3)n1 [Example 17, 1-(1-(Dimethylamino)-2-methylpropan-2-yl)-N-((1,2,3,5,6,7-hexahydro-s-indacen-4-yl)carbamoyl)-1H-pyrazole-3-sulfonamide]	< 160	< 1600					1.1	2.5	15800	0.18	bioavailability [3, 4]: 18.5%; CL/F [3, 7]: 6.1 mL/min/kg; half-life [3, 7]: 2.3 h; AUC [3, 8]: 8760 ng·h/mL; Cmax [3, 9]: 2810 ng/mL; Tmax [3, 10]: 0.67 h
CC(C)c1cccc(C(C)C)c1NC(=O)NS(=O)(=O)c1cc(C(=O)N(C)C)n(C)n1 [Example 167, 3-(N-((2,6-Diisopropylphenyl)carbamoyl)sulfamoyl)-N,N,1-trimethyl-1H-pyrazole-5-carboxamide, sodium salt]	< 640	< 400	333.7	48.7	0.5	0.99					
CCN(C)C(=O)c1cc(S(=O)(=O)NC(=O)Nc2c3c(cc4c2CCC4)CCC3)nn1C [Example 162, N-Ethyl-3-(N-((1,2,3,5,6,7-hexahydro-s-indacen-4-yl)carbamoyl)sulfamoyl)-N,1-dimethyl-1H-pyrazole-5-carboxamide]	< 160	< 800	1723.1	25.0	0.1	0.24					
CN1CC[C@H]1Cn1ccc(S(=O)(=O)NC(=O)Nc2c3c(cc4c2CCC4)CCC3)n1 [Example 20, (S)—N-((1,2,3,5,6,7-Hexahydro-s-indacen-4-yl)carbamoyl)-1-((1-methylazetidin-2-yl)methyl)-1H-pyrazole-3-sulfonamide]	< 160	< 400					2.4	2.9	11300	0.32	

Now from value to compound, other results behind:

IC50 (NLRP3 [1]) [nM]	IC50 (NLRP3 [2]) [nM]	AUC ([3]; intravenous administration) [ng·h/mL]	Cl ([3]; intravenous administration) [mL/min/kg]	T1/2 ([3]; intravenous administration) [h]	Vdss ([3]; intravenous administration) [L/kg]	clearance [3, 5] [mL/min/kg]	half-life [3, 5] [h]	AUC [3, 6] [ng·h/mL]	Vd [3, 5] [L/kg]	Structure (SMILES)	other results
< 160	< 400	415.0	40.3	6.4	7.96					CC(C)c1cc(F)cc(C(C)C)c1NC(=O)NS(=O)(=O)c1cc(C(=O)N2CCC2)n(C)n1 [Example 145, 5-(azetidine-1-carbonyl)-N-((4-fluoro-2,6-diisopropylphenyl)carbamoyl)-1-methyl-1H-pyrazole-3-sulfonamide, sodium salt]	
< 160	< 1600	302.7	55.3	1.6	1.66					CC(C)n1nc(S(=O)(=O)NC(=O)Nc2c3c(cc4c2CCC4)CCC3)cc1C(=O)N1CCC1 [Example 131, 5-(Azetidine-1-carbonyl)-N-((1,2,3,5,6,7-hexahydro-s-indacen-4-yl)carbamoyl)-1-isopropyl-1H-pyrazole-3-sulfonamide, partial ammonium salt]	
< 640	< 400					2.6	3.7	6420	0.38	CN(C)CCn1ccc(S(=O)(=O)NC(=O)Nc2c3c(cc4c2CCC4)CCC3)n1 [Example 7, 1-(2-(Dimethylamino)ethyl)-N-((1,2,3,5,6,7-hexahydro-s-indacen-4-yl)carbamoyl)-1H-pyrazole-3-sulfonamide]	bioavailability [3, 4]: 52.7%; CL/F [3, 7]: 5 mL/min/kg; half-life [3, 7]: 3 h; AUC [3, 8]: 15200 ng·h/mL; Cmax [3, 9]: 3250 ng/mL; Tmax [3, 10]: 1 h
< 160	< 400	786.6	114.1	0.3	2.37					CN(CCO)C(=O)c1cc(S(=O)(=O)NC(=O)Nc2c3c(cc4c2CCC4)CCC3)nn1C [Example 176, 3-(N-((1,2,3,5,6,7-Hexahydro-s-indacen-4-yl)carbamoyl)sulfamoyl)-N-(2-hydroxyethyl)-N,1-dimethyl-1H-pyrazole-5-carboxamide, partial ammonium salt]	
